According to ChEMBL document CHEMBL1201862, “PubChem BioAssay data set” (2004):
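Method: 48-hour compound exposure of cells in 96-well plates, five concentrations, linear interpolation of endpoints. Here, GI50 denotes the concentration required for 50% inhibition of growth.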 Activity calls are given as the source filed them. Rule as the data show it: active = GI50 up to about 1.1 µM and inactive = higher.

What was measured:
Assay in all cases: NCI anticancer screen, dose series, 48 h
EKVX = tested on: EKVX
OVCAR-3 = tested on: OVCAR-3
BT-549 = tested on: BT-549
MCF7 = tested on: MCF7
NCI-H23 = tested on: NCI-H23
U-251 = tested on: U-251
HOP-62 = tested on: HOP-62
K562 = tested on: K562
OVCAR-5 = tested on: OVCAR-5
T47D = tested on: T47D
CCRF-CEM = tested on: CCRF-CEM
SK-MEL-28 = tested on: SK-MEL-28
PC-3 = tested on: PC-3
HCT-116 = tested on: HCT-116
SN12C = tested on: SN12C
LOX IMVI = tested on: LOX IMVI
HT-29 = tested on: HT-29
SF-295 = tested on: SF-295
HL-60 = tested on: HL-60
HOP-92 = tested on: HOP-92
IGROV-1 = tested on: IGROV-1
UACC-62 = tested on: UACC-62
TK-10 = tested on: TK-10
CAKI-1 = tested on: CAKI-1
Malme-3M = tested on: Malme-3M
SK-MEL-2 = tested on: SK-MEL-2
MDA-N = tested on: MDA-N
DU-145 = tested on: DU-145
SK-MEL-5 = tested on: SK-MEL-5
HCC 2998 = tested on: HCC 2998
SF-268 = tested on: SF-268
A498 = tested on: A498
A549 = tested on: A549
SK-OV-3 = tested on: SK-OV-3
NCI-H460 = tested on: NCI-H460
NCI-H226 = tested on: NCI-H226
RPMI-8226 = tested on: RPMI-8226
HCT-15 = tested on: HCT-15
SNB-75 = tested on: SNB-75
Hs-578T = tested on: Hs-578T
SF-539 = tested on: SF-539
SW-620 = tested on: SW-620
MOLT-4 = tested on: MOLT-4
NCI/ADR-RES = tested on: NCI/ADR-RES
SNB-19 = tested on: SNB-19
COLO 205 = tested on: COLO 205
MDA-MB-435 = tested on: MDA-MB-435
SR = tested on: SR
OVCAR-4 = tested on: OVCAR-4
KM12 = tested on: KM12
OVCAR-8 = tested on: OVCAR-8
UACC-257 = tested on: UACC-257
MDA-MB-231 = tested on: MDA-MB-231
M14 = tested on: M14
ACHN = tested on: ACHN
UO-31 = tested on: UO-31
786-0 = tested on: 786-0
RXF 393 = tested on: RXF 393
NCI-H522 = tested on: NCI-H522

OC(COc1ccccc1)CN1CCCCC1 (centres undefined)
GI50 (EKVX): 63.4 µM (inactive)
GI50 (OVCAR-3): > 100 µM (inactive)
GI50 (BT-549): > 100 µM (inactive)
GI50 (MCF7): > 100 µM (inactive)
GI50 (NCI-H23): > 100 µM (inactive)
GI50 (U-251): > 100 µM (inactive)
GI50 (HOP-62): > 100 µM (inactive)
GI50 (K562): > 100 µM (inactive)
GI50 (OVCAR-5): > 100 µM (inactive)
GI50 (T47D): > 100 µM (inactive)
GI50 (CCRF-CEM): > 100 µM (inactive)
GI50 (SK-MEL-28): > 100 µM (inactive)
GI50 (PC-3): > 100 µM (inactive)
GI50 (HCT-116): > 100 µM (inactive)
GI50 (SN12C): > 100 µM (inactive)
GI50 (LOX IMVI): > 100 µM (inactive)
GI50 (HT-29): > 100 µM (inactive)
GI50 (SF-295): > 100 µM (inactive)
GI50 (HL-60): > 100 µM (inactive)
GI50 (HOP-92): > 100 µM (inactive)
GI50 (IGROV-1): > 100 µM (inactive)
GI50 (UACC-62): > 100 µM (inactive)
GI50 (TK-10): > 100 µM (inactive)
GI50 (CAKI-1): > 100 µM (inactive)
GI50 (Malme-3M): > 100 µM (inactive)
GI50 (SK-MEL-2): > 100 µM (inactive)
GI50 (MDA-N): > 100 µM (inactive)
GI50 (DU-145): > 100 µM (inactive)
GI50 (SK-MEL-5): > 100 µM (inactive)
GI50 (HCC 2998): > 100 µM (inactive)
GI50 (SF-268): > 100 µM (inactive)
GI50 (A498): > 100 µM (inactive)
GI50 (A549): > 100 µM (inactive)
GI50 (SK-OV-3): > 100 µM (inactive)
GI50 (NCI-H460): > 100 µM (inactive)
GI50 (NCI-H226): > 100 µM (inactive)
GI50 (RPMI-8226): > 100 µM (inactive)
GI50 (HCT-15): > 100 µM
GI50 (SNB-75): > 100 µM (inactive)
GI50 (Hs-578T): > 100 µM (inactive)
GI50 (SF-539): > 100 µM (inactive)
GI50 (SW-620): > 100 µM (inactive)
GI50 (MOLT-4): > 100 µM (inactive)
GI50 (NCI/ADR-RES): > 100 µM (inactive)
GI50 (SNB-19): > 100 µM (inactive)
GI50 (COLO 205): > 100 µM (inactive)
GI50 (MDA-MB-435): > 100 µM (inactive)
GI50 (SR): > 100 µM (inactive)
GI50 (OVCAR-4): > 100 µM (inactive)
GI50 (KM12): > 100 µM (inactive)
GI50 (OVCAR-8): > 100 µM (inactive)
GI50 (UACC-257): > 100 µM (inactive)
GI50 (MDA-MB-231): > 100 µM (inactive)
GI50 (M14): > 100 µM (inactive)
GI50 (ACHN): > 100 µM (inactive)
GI50 (UO-31): > 100 µM (inactive)
GI50 (786-0): > 100 µM (inactive)
GI50 (RXF 393): > 100 µM (inactive)
GI50 (NCI-H522): > 100 µM (inactive)
